Results as given in PMC12684313, “Controlled Dual Activation of Rhenium(I) Photosensitizers and Profluorophores/Prodrugs via a Dissociative Bioorthogonal Tetrazine–Isonitrile Reaction” (Angewandte Chemie (International Ed. in English), 2025).
Where two headings read alike, the source gives them in different places. Each block holds one compound with its values, some of them ahead of it.

Columns and labels:
HeLa cells = assay: MTT assay, (photo)cytotoxicity toward HeLa cells; type: cell-based
Method: (§1) HeLa and HEK-293 cells were seeded in a 96-well flat-bottomed microplate (≈ 10,000 cells per well) in growth medium (100 µL) and incubated at 37°C under a 5% CO2 atmosphere for […]
(§2) 48 h. The growth medium was removed, and then incubated with either fresh growth medium or complexes 1a – 3a, with concentrations ranging from 10–5 to 10−8 M, in growth medium/DMSO (99:1, v/v) at 37°C for 3 h. The growth medium was removed and replaced with either fresh growth medium or ICPrc-Bn (200 µM) in growth medium/DMSO (99:1, v/v) at 37°C for 4 h. Wells containing untreated cells were used as a blank control. Wells containing cells treated with ICPrc-Bn (200 µM) alone for 4 h were used as a complex-free control. For evaluation of photocytotoxicity, the treated cells were incubated in phenol red-free growth medium (100 µL). One of the microplates was irradiated at 365 nm (5 mW cm−2) with an LED cellular photocytotoxicity irradiator (PURI Materials, Shenzhen, China) for […], whereas the other one was kept in the dark for 10 min. The cells were then incubated in fresh growth medium (100 µL) in the dark for 24 h. A solution containing MTT in PBS (10 µL, 5 mg mL−1) and fresh growth medium (90 µL) was added to each well. The microplate was incubated at 37°C for 4 h. The growth medium was removed, and DMSO (200 µL) was added to each well.
(§3) After 20 min, the absorbance of the solutions at 570 nm was measured with a Multiskan SkyHigh Microplate Spectrophotometer (Thermo Scientific). The IC50 values of the complex were determined from the dose dependence of surviving cells after the treatment using the OriginPro 8.0 software package. For dual-release studies, the cells were incubated with complex 3a, with concentrations ranging from 10–5 to 10−8 M, in growth medium/DMSO (99:1, v/v) at 37°C for 3 h, and replaced with either fresh growth medium or ICPrc-Dox (10 or 50 µM) in growth medium/DMSO (99:1, v/v) at 37°C for 4 h. Wells containing cells treated with ICPrc-Dox (10 or 50 µM) alone for 4 h were used as a complex-free control. Wells containing cells treated with cisplatin (3 h) or Dox (4 h), with concentrations ranging from 10–5 to 10−8 M, in growth medium/DMSO (99:1, v/v) at 37°C were used as positive controls. Furthermore, to evaluate the maximum therapeutic effect of the dual release, concentrations of complex 3b and Dox were serially diluted in a 1:1 ratio to serve as a reference, assuming similar cellular uptake […]
(§4) of complex 3a with 3b and ICPrc-Dox with Dox. Briefly, HeLa cells were incubated with complex 3b, with concentrations ranging from 10–5 to 10−8 M, in growth medium/DMSO (99:1, v/v) at 37°C for 3 h, and replaced with either fresh growth medium or Dox, with concentrations ranging from 10–5 to 10−8 M, in growth medium/DMSO (99:1, v/v) at 37°C for 4 h.

HEK‐293 cells = assay: MTT assay, (photo)cytotoxicity toward HEK-293 cells; type: cell-based
Method: as §1, §2
(§5) After 20 min, the absorbance of the solutions at 570 nm was measured with a Multiskan SkyHigh Microplate Spectrophotometer (Thermo Scientific). The IC50 values of the complex were determined from the dose dependence of surviving cells after the treatment using the OriginPro 8.0 software package. […]

[1] = MTT assay, (photo)cytotoxicity toward HeLa cells; type: cell-based; conditions: human, HeLa cells, read-out: cell viability
Method: as §1, §2, §3, §4

[2] = MTT assay, (photo)cytotoxicity toward HEK-293 cells; type: cell-based; conditions: human, HEK-293 cells, read-out: cell viability
Method: as §1, §2, §5

[3] = Stability of ICPr/ICPrc derivatives in serum (HPLC); type: in vitro ADME; conditions: 25 µM in 25% FBS, 37 °C, dark
Method: was incubated with ICPr-coum (80 µM) in aerated McIlvaine buffer (pH 7.4 or 5.0)/CH3CN (4:1, v/v) at 37°C. The reactions at different time points were quenched by the addition of 900 µL of cold H2O/CH3CN (1:1, v/v) and then analyzed by RP-HPLC. The HPLC analysis was conducted following the elution conditions specified for the reaction kinetic studies. The release yields were plotted against time. The half-lives (t1/2) were defined as the time required for the concentration of the reactant to decrease by half of its initial quantity, obtained through an exponential fit of the curve. The release yields were defined as the quantity of the final product, umbelliferone, liberated in the reaction. Furthermore, to evaluate the effect of ether versus carbamate linkages within the ICPr/ICPrc moiety on release kinetics, the half-lives of ICPr-coum, ICPr-fluorescein, and ICPrc-Dox were determined by HPLC analyses. Equimolar mixtures of complex 3a (50 µM) and each ICPr/ICPrc derivative (50 µM) were incubated in aerated McIlvaine buffer (pH 7.4)/DMSO (4:1, v/v) at 37°C. The reactions at different time points were quenched by the addition of 900 µL of cold H2O/CH3CN (1:1, v/v) and then […]
Stability of ICPr/ICPrc Derivatives in Serum
ICPr-fluorescein or ICPrc-Dox (25 µM) was incubated in 25% FBS at 37 °C in the dark for 48 h. […]

[4] = 1O2 generation quantum yield from 1O2 emission at around 1270 nm; type: physicochemical; conditions: aerated CH3CN, 298 K; λex = 350 nm; reference phenalenone
Method: (§6) The ^1O2 generation efficiencies of the complexes were evaluated by monitoring the emission band of ^1O2 centered at around 1270 nm^[ [34], [35] ^] in aerated CH3CN. […] Considering the pH‐dependent emission properties of complexes 1b–3b, we believe that their ^1O2 photosensitization efficiencies would also be influenced by pH. Taking complex 3b as an example, its ^1O2 generation efficiency was evaluated in aerated McIlvaine buffer solutions at various pH levels by the 9,10‐anthracenediyl‐bis(methylene)dimalonic acid (ABDA) assay.^[ [36] ^] […] Thus, the TzMe complexes are anticipated to function as pH‐sensitive phosphorogenic bioorthogonal probes, enabling simultaneous detection and photodynamic therapy in lysosomal compartments (pH ≈ 4.5–5.0)^[ [37], [38] ^] and acidic TME.

[5] = 1O2 generation quantum yield by ABDA assay in McIlvaine buffer; type: physicochemical; conditions: 298 K
Method: as §6, with “TME. […]” for “TME.”
where the subscripts s and r refer to the sample and reference solutions, respectively, Φ is 1O2 quantum yield, m is the slope of a linear fit of the change of absorbance at 378 nm against the irradiation time, B is 1 – 10–AL, A is absorbance at the excitation wavelength, and L is path […]
To confirm the liberation of ICPr/ICPrc -caged compounds during the reaction, the concurrent release of compounds from their respective tetrazine and ICPr/ICPrc caging groups was studied by RP-HPLC analysis. Complex 3a (50 µM) and ICPr -coum (40 µM) were incubated in aerated McIlvaine buffer (pH 7.4)/DMSO (4:1, v/v) at 37°C for 18 h. The reaction mixture was subjected to HPLC analysis. The HPLC analysis was performed using an Agilent analytical column (ZORBAX Eclipse Plus C18 column: 4.6 × 150 mm, 5 µm) with a linear gradient of 0 − 100% solvent B over 12 min and a flow rate of 1 mL min −1. The emission was monitored at the emission peak maxima of the released products, umbelliferone (also known as 7 - hydroxycoumarin) (λex = 350 nm, λem = 460 nm) and complex 3b (λex = 350 nm, λem = 562 nm). […] The emission spectrum was recorded on a HORIBA FluoroMax-4 spectrofluorometer. […] The reaction was monitored by HPLC analyses after incubation for 4 and 24 h.

[6] = – ICPrc‐Bn, irradiation at 365 nm (5 mW cm−2) for 5 min, read-out: IC50,light
[7] = ICPrc‐Bn (200 µM) alone for 4 h, subsequently irradiated
[8] = ICPrc‐Dox (10 or 50 µM) alone, dark and irradiation

SMILES: N.N.[Cl][Pt][Cl] [Cisplatin, cisplatin, reference compound]
IC50 (HeLa cells; – ICPrc‐Bn (complex 3 h, fresh medium 4 h; cisplatin 3 h), dark, read-out: IC50,dark): > 50 µM
IC50 (HeLa cells; [6]): > 50 µM
IC50 (HEK‐293 cells; – ICPrc‐Bn, dark, read-out: IC50,dark): > 50 µM
IC50 (HEK‐293 cells; [6]): > 50 µM

SMILES: COc1cccc2c1C(=O)c1c(O)c3c(c(O)c1C2=O)C[C@@](O)(C(=O)CO)C[C@@H]3O[C@H]1C[C@H](N)[C@H](O)[C@H](C)O1 [Dox, doxorubicin, reference compound]
IC50 (HeLa cells; Homo sapiens, Table 2, no ICPrc‐Dox (3a 3 h then fresh medium 4 h; Dox 4 h), dark, read-out: IC50,dark): 5.8 ± 0.6 µM
IC50 (HeLa cells; Homo sapiens, light or radiation study, 5 min, Table 2, no ICPrc‐Dox, irradiation at 365 nm (5 mW cm−2) for 5 min, read-out: IC50,light): 5.3 ± 0.6 µM
PI (IC50,dark/IC50,light) (HeLa cells; Table 2, no ICPrc‐Dox): 1
IC50 (HEK‐293 cells; Homo sapiens, HEK293, Table 2, no ICPrc‐Dox, dark, read-out: IC50,dark): > 50 µM
IC50 (HEK‐293 cells; Homo sapiens, HEK293, light or radiation study, 5 min, Table 2, no ICPrc‐Dox, irradiation at 365 nm (5 mW cm−2) for 5 min, read-out: IC50,light): 43 ± 2 µM
PI (IC50,dark/IC50,light) (HEK‐293 cells; Table 2, no ICPrc‐Dox): > 1

SMILES: [C-]#[N+]CCCOC(=O)NCc1ccccc1 [ICPrc‐Bn, 3‐isocyanopropyl benzylcarbamate, reference compound]
viability at 4 h, 200 µM [1, 7]: > 98%
viability at 4 h, 200 µM [2, 7]: > 98%

SMILES: [C-]#[N+]CCCOC(=O)NC1CC(OC2CC(O)(C(=O)CO)Cc3c(O)c4c(c(O)c32)C(=O)c2c(OC)cccc2C4=O)OC(C)C1O (centres unmarked) [ICPrc‐Dox, N-(3-isocyanopropyl-1-carbamoyl)doxorubicin, reference compound]
viability at 4 h [1, 8]: > 98%
viability at 4 h [2, 8]: > 98%
time stable in serum [3]: over 48 h

time stable in serum [3]: at least 48 h
SMILES: [C-]#[N+]CCCOc1ccc2c(-c3ccccc3C(=O)O)c3ccc(=O)cc-3oc2c1 [ICPr‐fluorescein]

SMILES: O=S(=O)([O-])C(F)(F)F.O=[C]=[Re-2]1(=[C]=O)(=[C]=O)([n+]2cccc(O)c2)[n+]2ccc(-c3ccccc3)c3ccc4c(-c5ccccc5)cc[n+]1c4c32 [complex 3b, [Re(N^N)(CO)3(py‐OH)](CF3SO3)]
PI (IC50,dark/IC50,light) (HeLa cells; Table S10): 6
IC50 (HeLa cells; Table S10, 3b 3 h then fresh medium or Dox (1:1 ratio) 4 h, dark, read-out: IC50,dark): 29 µM
IC50 (HeLa cells; Table S10, 3b 3 h then fresh medium or Dox (1:1 ratio) 4 h, irradiation at 365 nm (5 mW cm−2) for 5 min, read-out: IC50,light): 5.1 µM
1O2 generation quantum yield (ΦΔ) [4]: 0.63
1O2 generation quantum yield (ΦΔ) ([5]; aerated McIlvaine buffer pH 3.0/CH3CN (4:1, v/v)): 0.24
1O2 generation quantum yield (ΦΔ) ([5]; aerated McIlvaine buffer pH 5.0/CH3CN (4:1, v/v)): 0.12
1O2 generation quantum yield (ΦΔ) ([5]; aerated McIlvaine buffer pH 7.4/CH3CN (4:1, v/v)): Negligible
